Reference: article PMC3161871, “Heteroarylketones inhibit astroglial interleukin-6 expression via a STAT3/NF-κB signaling pathway” (Journal of Neuroinflammation, 2011)
pKi: −log10 of the molar value.

What was measured:
[1] = system: OSM-stimulated IL-6 secretion from U343 cells; assay: OSM-induced IL-6 release from U343 glioma cells (IL-6 ELISA of conditioned medium); assay type: cell-based, human
Procedure: The human glioma cell line U343 [34] was maintained in DMEM containing 10% fetal bovine serum and 60 μg/ml gentamycin (Invitrogen, Darmstadt, Germany) at 37°C in a 10% CO2 atmosphere.
Measurements of IL-6 in conditioned medium and murine plasma samples were done by means of human- or murine-specific IL-6 Cytoset kits (Invitrogen, Darmstadt, Germany) according to manufacturer's protocols.
Using the characterized cell culture model of OSM-induced IL-6 expression, our in-house compound libraries were screened for potent IL-6 expression inhibitors. Human U343 glioma cells were treated with 100 ng/ml OSM for 24 h. The analysis by IL-6 ELISA identified a set of structurally related compounds as potent inhibitors of IL-6 secretion (Table 1). […] HAKs with proline in position P1 are known from the literature as inhibitors of prolyl endopeptidase (PREP), a proline-specific serine protease.

[2] = system: OSM-stimulated IL-6 secretion from U343 cells; assay: as above; assay type: cell-based, human; settings: 20 μM compound, vehicle-transfected U343 cells, OSM 6 h
[3] = target: T1, human recombinant prolyl endopeptidase (PREP) (Homo sapiens, UniProt P48147); assay: PREP enzymatic activity assay (Z-Gly-Pro-pNA, photometric); assay type: biochemical; settings: recombinant PREP, Z-Gly-Pro-pNA 62.5/125/250 μM, pH 7.6, 30°C, competitive fit
T1 construct: made in house
T1 sequence (P48147 1-710): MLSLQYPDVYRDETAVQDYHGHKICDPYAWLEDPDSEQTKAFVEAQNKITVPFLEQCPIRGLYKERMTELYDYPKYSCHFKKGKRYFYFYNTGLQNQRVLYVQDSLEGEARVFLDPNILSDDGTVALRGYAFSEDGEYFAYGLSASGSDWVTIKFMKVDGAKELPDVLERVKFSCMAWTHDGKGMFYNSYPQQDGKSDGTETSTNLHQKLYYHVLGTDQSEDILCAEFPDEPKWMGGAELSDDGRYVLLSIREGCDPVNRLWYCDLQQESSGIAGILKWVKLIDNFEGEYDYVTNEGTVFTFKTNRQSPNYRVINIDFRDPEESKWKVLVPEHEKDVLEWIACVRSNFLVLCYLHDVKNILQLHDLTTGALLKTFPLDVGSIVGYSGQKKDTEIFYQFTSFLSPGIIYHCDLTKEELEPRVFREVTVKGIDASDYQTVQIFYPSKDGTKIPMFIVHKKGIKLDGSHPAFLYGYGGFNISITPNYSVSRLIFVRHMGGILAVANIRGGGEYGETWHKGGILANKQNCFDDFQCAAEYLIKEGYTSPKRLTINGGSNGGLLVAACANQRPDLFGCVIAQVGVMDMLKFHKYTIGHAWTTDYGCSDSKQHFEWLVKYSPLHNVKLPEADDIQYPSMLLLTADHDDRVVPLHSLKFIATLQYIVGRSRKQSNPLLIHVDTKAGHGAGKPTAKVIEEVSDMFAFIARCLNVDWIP
Procedure: The activity of human recombinant prolyl endopeptidase (PREP) was determined photometrically using the substrate Z-Gly-Pro-pNA (Bachem, Weil am Rhein, Germany) usually at a concentration of 150 μM. As assay buffer 50 mM HEPES buffer pH 7.6, containing 200 mM NaCl, 1 mM EDTA, and 1 mM dithiothreitol was used. Release of pNA was monitored continuously at 405 nm for 15 min at 30°C in a 96-well plate reader (Spectrafluor, Tecan, Crailsheim, Germany). PREP activity was calculated from the slope of the time product curve with the help of a pNA standard. For determination of Ki values three different substrate concentrations (62.5 μM; 125 μM and 250 μM) and seven different inhibitor concentrations were analyzed. Substrate concentrations were selected to be at the Km value of Z-Gly-Pro-pNA (125 μM) as well as half and twice the Km. Data were fitted by non-linear regression to the competitive inhibitor equation (Graphit 5.0, Erithacus software).

C[C@H](NC(=O)OCc1ccccc1)C(=O)N1CCC[C@H]1C(=O)c1nc2ccccc2s1 [HAK-2, Z-Ala-Pro-BTh]
Remaining IL-6 expression [% of control] ([1]; 100 ng/ml OSM, 24 h, IL-6 release of vehicle-treated cells set to 100% (n = 2), mean ± SD): 18.7 ± 3.87 % of control
Effect on OSM-induced IL-6 secretion (in words) ([1]; OSM-stimulated): significantly reduced
IL-6 levels (mRNA and released protein) in the PREP knock-down experiment [2]: reduces IL-6 levels
pKi [3]: 10.42
